Experimental findings from patent US20090209536A1, “AMINOQUINAZOLINE CANNABINOID RECEPTOR MODULATORS FOR TREATMENT OF DISEASE” (KALYPSYS, INC., priority 2007, published 2009) are described below.

The structures appear in SMILES notation. Where two headings read alike, the source gives them in different places.

The target of assay [1] is T1, human cannabinoid receptor type 2 (Homo sapiens, UniProt P34972).
T1 construct: expressed in transfected cells; membrane preparation
Put plainly: Human CB2 Radioligand Binding Assay. To be noted: membranes from stably transfected CHO CB2 cells. The procedure, abridged:
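Filtration competition binding on membranes from CHO cells stably expressing human CB2, with [3H]CP-55,940 at its lot-specific Kd, in 50 mM Tris-HCl pH 7.4, EGTA, MgCl2, 5 mg/ml BSA, 1% DMSO; 90 min at 30° C. Compounds at 10 uM single point or dose-response; bound radioactivity by scintillation, 100 nM CP-55,940 as 100% efficacy.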

Assay [2] addresses T2, human cannabinoid receptor type 1 (Homo sapiens, UniProt P21554).
T2 construct: purchased Perkin Elmer RBHCB1M; host or cells: HEK 293 EBNA cells
Put plainly: Human CB1 Radioligand Binding Assay (basis of selectivity, CB2 vs. CB1). To be noted: CB1: HEK 293 EBNA cells expressing human CB1; CB2: CHO CB2 membranes. The method, then: 2. Human CB1 Radioligand Binding Assay
The incubation buffer was composed of 50 mM Tris-HCl pH 7.4, 2.5 mM EDTA, 5 mM MgCl2, 5.0 mg/ml fatty acid free BSA and the wash buffer was composed of 50 mM Tris-HCl pH 7.4, 2.5 mM EDTA, 5 mM MgCl2, 0.5 mg/ml fatty acid free BSA.

Setting [3] is: competition with [3H] CP-55,940, read-out: CB2 Ligand Binding Asssay EC50.

T2 sequence (P21554 whole entry): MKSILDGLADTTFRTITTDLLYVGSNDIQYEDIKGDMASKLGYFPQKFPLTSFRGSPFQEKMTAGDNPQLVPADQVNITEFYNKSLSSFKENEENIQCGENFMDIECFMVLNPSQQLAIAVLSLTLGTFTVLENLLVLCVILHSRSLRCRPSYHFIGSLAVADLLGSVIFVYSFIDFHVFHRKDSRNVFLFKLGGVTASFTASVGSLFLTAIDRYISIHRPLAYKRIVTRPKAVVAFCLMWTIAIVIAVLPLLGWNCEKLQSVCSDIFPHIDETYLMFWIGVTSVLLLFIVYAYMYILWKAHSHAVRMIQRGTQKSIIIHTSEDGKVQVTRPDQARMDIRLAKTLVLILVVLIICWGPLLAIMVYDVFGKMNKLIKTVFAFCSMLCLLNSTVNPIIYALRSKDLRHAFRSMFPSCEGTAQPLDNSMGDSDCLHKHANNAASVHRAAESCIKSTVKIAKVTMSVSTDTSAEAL
T1 sequence (P34972 whole entry): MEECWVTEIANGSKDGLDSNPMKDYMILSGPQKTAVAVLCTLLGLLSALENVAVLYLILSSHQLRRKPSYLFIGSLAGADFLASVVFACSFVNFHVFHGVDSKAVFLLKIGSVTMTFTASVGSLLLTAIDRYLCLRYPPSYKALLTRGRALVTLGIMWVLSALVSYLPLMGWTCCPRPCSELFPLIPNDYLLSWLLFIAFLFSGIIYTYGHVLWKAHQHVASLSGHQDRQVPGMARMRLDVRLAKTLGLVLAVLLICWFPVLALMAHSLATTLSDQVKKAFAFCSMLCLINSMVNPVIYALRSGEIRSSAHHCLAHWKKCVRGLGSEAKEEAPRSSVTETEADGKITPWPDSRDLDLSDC

The EC50 is the concentration giving half of the maximal effect. For `CN1CCN(c2nc(-c3ccccc3Cl)nc3ccc(Cl)cc23)CC1` [Example 208, 6-Chloro-2-(2-chlorophenyl)-4-(4-methylpiperazin-1-yl)quinazoline], the EC50 in assay [1] (setting [3]) was under 1000 nM. The “Selectivity, CB2 vs. CB1” value in assay [2] is “+ (+ indicates > 10−fold)”.
For `Cc1ccccc1-c1nc(N2CCCCC2)c2ccccc2n1` [Example 187, 4-Piperidin-1-yl-2-o-tolylquinazoline], in that order: over 1000 nM and “− (− indicates ≦ 10−fold)”.
For the compound `CC(C)NC(=O)N1CCN(c2nc(-c3ccccc3Cl)nc3ccccc23)CC1` [Example 90, 4-(2-(2-Chlorophenyl)quinazolin-4-yl)-N-isopropylpiperazine-1-carboxamide], the EC50 in assay [1] (CB2 Ligand Binding Asssay EC50, competition with [3H] CP-55,940) is over 1000 nM. For the same compound, the “Selectivity, CB2 vs. CB1” value in assay [2] is “− (− indicates ≦ 10−fold)”.
`COc1ccc(Cc2nc(N3CCCCC3)c3ccccc3n2)cc1` [Example 336, 2-(4-Methoxybenzyl)-4-(piperidin-1-yl)quinazoline]: the EC50 in assay [1] (setting [3]) is over 1000 nM. Further, the “Selectivity, CB2 vs. CB1” value in assay [2] is reported as “+ (+ indicates > 10−fold)”.
For `CN(CCCn1ccnc1)c1nc(-c2ccccc2Cl)nc2ccccc12` [Example 259, N-(3-(1H-Imidazol-1-yl)propyl)-2-(2-chlorophenyl)-N-methylquinazolin-4-amine], in that order: over 1000 nM and “− (− indicates ≦ 10−fold)”.
For `COc1cccc2nc(-c3ccccc3Cl)nc(N3CCCC3)c12` [Example 245, 2-(2-Chlorophenyl)-5-methoxy-4-(pyrrolidin-1-yl)quinazoline], in that order: under 1000 nM and “+ (+ indicates > 10−fold)”.
For `CC(=O)N1CCN(c2nc(-c3ccccc3F)nc3ccccc23)CC1` [Example 153, 1-(4-(2-(2-Fluorophenyl)quinazolin-4-yl)piperazin-1-yl)ethanone], in that order: under 1000 nM and “+ (+ indicates > 10−fold)”.
With `COc1ccc2nc(-c3ccccc3F)nc(N3CCN(C(C)=O)CC3)c2c1` [Example 274, 1-(4-(2-(2-Fluorophenyl)-6-methoxyquinazolin-4-yl)piperazin-1-yl)ethanone], in assay [1] (setting [3]), the EC50 was under 1000 nM. Also, the “Selectivity, CB2 vs. CB1” value in assay [2] is listed as “− (− indicates ≦ 10−fold)”.
Regarding `Cc1ccccc1-c1nc(N2CCN(C)CC2)c2ccccc2n1` [Example 157, 4-(4-Methylpiperazin-1-yl)-2-o-tolylquinazoline], the EC50 in assay [1] (setting [3]) is under 1000 nM. In assay [2], the “Selectivity, CB2 vs. CB1” value is “+ (+ indicates > 10−fold)”.
For `c1ccc(NCc2nc(Nc3ccccc3)c3ccccc3n2)cc1` [Example 303, N-Phenyl-2-((phenylamino)methyl)quinazolin-4-amine], in that order: over 1000 nM and “− (− indicates ≦ 10−fold)”.
For `CCc1ccc2nc(-c3ccccc3Cl)nc(N3CCCCC3)c2c1` [Example 175, 2-(2-Chlorophenyl)-6-ethyl-4-(piperidin-1-yl)quinazoline], in that order: under 1000 nM and “− (− indicates ≦ 10−fold)”.
For `CCOC(=O)N1CCN(c2nc(-c3ccccc3Cl)nc3cc(Cl)ccc23)CC1` [Example 234, Ethyl 4-(7-chloro-2-(2-chlorophenyl)quinazolin-4-yl)piperazine-1-carboxylate], in that order: over 1000 nM and “− (− indicates ≦ 10−fold)”.
Turning to `CCOC(=O)N1CCN(c2nc(-c3ccc(Cl)cc3Cl)nc3ccccc23)CC1` [Example 203, Ethyl 4-(2-(2,4-dichlorophenyl)quinazolin-4-yl)piperazine-1-carboxylate], the EC50 in assay [1] (setting [3]) is over 1000 nM. Also, the “Selectivity, CB2 vs. CB1” value in assay [2] is reported as “− (− indicates ≦ 10−fold)”.
For the compound `CC(=O)N1CCN(c2nc(-c3ccccc3Cl)nc3cc(Cl)ccc23)CC1` [Example 233, 1-(4-(7-Chloro-2-(2-chlorophenyl)quinazolin-4-yl)piperazin-1-yl)ethanone], the EC50 in assay [1] (setting [3]) was under 1000 nM. Besides, the “Selectivity, CB2 vs. CB1” value in assay [2] was “− (− indicates ≦ 10−fold)”.
With `COC(=O)N1CCN(c2nc(-c3ccccc3Cl)nc3cccc(Cl)c23)CC1` [Example 261, Methyl 4-(5-chloro-2-(2-chlorophenyl)quinazolin-4-yl)piperazine-1-carboxylate], the EC50 in assay [1] (setting [3]) was under 1000 nM. Moreover, in assay [2], the “Selectivity, CB2 vs. CB1” value was “+ (+ indicates > 10−fold)”.
For `COc1ccc2nc(-c3ccccc3Cl)nc(N3CCCC3)c2c1` [Example 179, 2-(2-Chlorophenyl)-6-methoxy-4-(pyrrolidin-1-yl)quinazoline], in that order: under 1000 nM and “+ (+ indicates > 10−fold)”.
For `COc1ccc2c(N3CCCC3)nc(C3CCCCC3)nc2c1` [Example 159, 2-Cyclohexyl-7-methoxy-4-(pyrrolidin-1-yl)quinazoline], in that order: over 1000 nM and “+ (+ indicates > 10−fold)”.
As for `CN1CCN(c2nc(-c3ccccc3Cl)nc3ccccc23)CC1` [Example 57, 2-(2-Chlorophenyl)-4-(4-methylpiperazin-1-yl)quinazoline], in assay [1] (setting [3]), the EC50 was under 1000 nM. Also, in assay [2], the “Selectivity, CB2 vs. CB1” value is “+ (+ indicates > 10−fold)”.
For `Clc1ccnc(N2CCN(c3nc(-c4ccccc4Cl)nc4ccccc34)CC2)n1` [Example 198], in that order: over 1000 nM and “− (− indicates ≦ 10−fold)”.
For `Clc1ccccc1-c1nc(N2CCNCC2)c2ccccc2n1` [Example 82, 2-(2-Chlorophenyl)-4-piperazin-1-ylquinazoline], in that order: over 1000 nM and “− (− indicates ≦ 10−fold)”.
For `CCOC(=O)N1CCN(c2nc(-c3ccc(Cl)cc3)nc3ccccc23)CC1` [Example 200, Ethyl 4-(2-(4-chlorophenyl)quinazolin-4-yl)piperazine-1-carboxylate], in that order: over 1000 nM and “− (− indicates ≦ 10−fold)”.
As to `CCOC(=O)N1CCN(c2nc(-c3ccccc3Cl)nc3ccc(C(=O)N(CC)CC)cc23)CC1` [Example 314, Ethyl 4-(2-(2-chlorophenyl)-6-(diethylcarbamoyl)quinazolin-4-yl)piperazine-1-carboxylate], the EC50 in assay [1] (setting [3]) is over 1000 nM. In addition, the “Selectivity, CB2 vs. CB1” value in assay [2] was “+ (+ indicates > 10−fold)”.
For `c1ccc2c(N3CCCC3)nc(C3CCCCC3)nc2c1` [Example 36, 2-Cyclohexyl-4-(pyrrolidin-1-yl)quinazolines], in that order: under 1000 nM and “+ (+ indicates > 10−fold)”.
For `COc1ccc(Cc2nc(N3CCCCC3)c3ccccc3n2)cc1OC` [Example 335, 2-(3,4-Dimethoxybenzyl)-4-(piperidin-1-yl)quinazoline], in that order: over 1000 nM and “− (− indicates ≦ 10−fold)”.
For `Clc1ccccc1-c1nc(N2CCCCC2)c2ccccc2n1` [Example 54, 2-(2-Chlorophenyl)-4-(piperidin-1-yl)quinazoline], in that order: under 1000 nM and “+ (+ indicates > 10−fold)”.
With `CN(c1nc(-c2ccccc2Cl)nc2ccccc12)C1CCCCC1` [Example 63, 2-(2-Chlorophenyl)-N-cyclohexyl-N-methylquinazolin-4-amine], the EC50 in assay [1] (setting [3]) was under 1000 nM. For the same compound, the “Selectivity, CB2 vs. CB1” value in assay [2] was “− (− indicates ≦ 10−fold)”.
